We go through two compounds from patent US5426194A, “Isolation and structure of Halistatin 1” (Arizona Board of Regents, a body corporate acting on behalf …, priority 1993, dated 1995).

In data set [1] the test system is human tumor cell line panel. Kind of data set: NCI in vitro primary screen, pattern of differential growth inhibition / mean graph comparison. It is filed as cell-based. To be noted: computerized pattern-recognition analyses. From the text:
Only two hundred years ago, many diseases ravaged humankind. Many of these diseases have been controlled or eradicated. In the development of the means to treat or control these diseases, work with the appropriate common experimental animals is of critical importance. With the various types of cancers, and with the HIV virus, such work is presently ongoing. The research for the treatment of various types of cancer is coordinated in the United States by the National Cancer Institute (NCI). NCI, as a government entity, has been charged with assisting all anti-cancer research. To establish whether a substance has anti-cancer activity, NCI has established a variety of protocols one of which involves testing the candidate substance against a cell line panel containing 60 human tumor cell lines. This protocol has been verified, and is generally accepted throughout the scientific community. This protocol and the established statistical means of evaluating the results obtained therefrom have been fully described in the literature See Principles & Practice of Oncology PPO Updates, Volume 3, Number 10, October 1989, by Michael R. Boyd, M.D., Ph.D. for an in depth description of the test protocol. […]

Data set [2] deals with tubulin. The settings on record: in words, shown previously; cited from earlier work.
The test system of data set [3] is L1210 murine leukemia cells. Put plainly: cytotoxicity in L1210 leukemia cells. It counts as cell-based.
Data set [4] concerns tubulin. Put plainly: radiolabeled GTP binding to tubulin (nucleotide exchange).
The test system of data set [5] is L1210 murine leukemia cells. Put plainly: mitotic index at cytotoxic concentrations. It counts as cell-based. The settings on record: in words.
Data set [6] relates to tubulin. Put plainly: binding of radiolabeled vinblastine to tubulin.
Data set [7] has as its system tubulin. The settings on record: in words, shown previously; cited from earlier work. This is another data set of the same source.

Take `C=C1C[C@@H]2CC[C@@]34C[C@H]5O[C@H]6[C@@H](O3)[C@H]3O[C@H](CC[C@@H]3O[C@H]6[C@H]5O4)CC(=O)O[C@@H]3[C@@H](C)[C@@H]4O[C@@H]5C[C@]6(C[C@@H]7O[C@]8(C[C@H](C)[C@@H]9O[C@H]([C@@H](O)C[C@@H](O)CO)C[C@@H]9O8)C[C@H](C)[C@@H]7O6)O[C@@H]5C[C@@H]4O[C@H]3C[C@H]3O[C@@H](CC[C@@H]1O2)C[C@@H](C)C3=C` [halichondrin B]: in data set [1], the “correlation of mean graph profiles” value is “strongly correlated with each other and also with the profiles of a general class of tubulin-interactive antimitotics”. Further, the “inhibition of nucleotide exchange on tubulin” value in the data set on tubulin [2] is given as “inhibit nucleotide exchange on tubulin”. Besides, the IC50 in data set [3] is 0.2 nM. For the same compound, the figures for the “inhibition of radiolabeled GTP binding to tubulin” value with tubulin [4] (5 μM) and with tubulin [4] (10 μM) were 14% and 18%, respectively. In addition, in data set [5], the “rise in the mitotic index” value was “caused a significant rise in the mitotic index”. The “inhibition of binding of radiolabeled vinblastine” value in the data set on tubulin [6] (5 μM) was found to be 51%; with tubulin [6] (10 μM) it was 73%. In addition, in the data set on tubulin [7], the “mode of inhibition of vinblastine binding to tubulin” value is “noncompetitive inhibitor of the binding of radiolabeled vinblastine to tubulin”.
Consider `C=C1C[C@@H]2CC[C@@]34C[C@H]5O[C@H]6[C@@H](O3)[C@H]3O[C@H](CC[C@@H]3O[C@H]6[C@H]5O4)CC(=O)O[C@@H]3[C@@H](C)[C@@H]4O[C@@H]5C[C@]6(C[C@@H]7O[C@]8(C[C@H](C)[C@@H]9O[C@@H]%10CC(C(O)CO)O[C@@H]%10C[C@@H]9O8)C[C@H](C)[C@@H]7O6)O[C@@H]5C[C@@H]4O[C@H]3C[C@H]3O[C@@H](CC[C@@H]1O2)C[C@@H](C)C3=C` (stereo partly shown) [homohalichondrin B], for which, in data set [1], the “correlation of mean graph profiles” value was “strongly correlated with each other and also with the profiles of a general class of tubulin-interactive antimitotics”.
